Measured values reported in patent publication US7700108B2, “Tumor antigen protein and use thereof” (Dainippon Sumitomo Pharma Co., Ltd., priority 2002, dated 2010).
Where no end group is shown, it is not given here.

System: TcOS2000cl-303 (CTL) with 293-EBNA-B55 cells (HLA-B* 5502)
Test: LDH release assay: reactivity of CTL TcOS2000cl-303 to peptide-pulsed 293-EBNA-B55 cells
Type: cell-based, human
Settings: 293-EBNA-B55 cells pulsed for 1 hour with peptide, co-cultured with TcOS2000cl-303; FIG. 5
Method: The first screening involved the following procedures. A pool of about 100 cDNA clones ([…]) was introduced into 293-EBNA-B55 cells having been plated into a 96-well microplate at 8×10^4 cells/well by lipofection method (Lipofectamine 2000, Invitrogen). Pools of respective cDNA clones used for introduction were stored separately. Twenty-four-hour later, TcOS2000cl-303 cells (8×10^4) were added and cultivation continued for another 24 hours, when the cultured supernatant was recovered. The reactivity of CTL was evaluated by determining LDH released in the supernatant by cytotoxic effects using LDH Cytotoxicity Detection Kit (TAKARA BIO). […] As a result, the reactivity was detected in 20 wells. […] As a result, the reactivity was detected in 4 wells.
Antigen peptide regions that bind to HLA-B* 5502 was identified from various peptides synthesized on the basis of the amino acid sequence (SEQ ID NO: 2) of tumor antigen protein PBF using as an index the reactivity of TcOS2000cl-303. 293-EBNA-B55A cells (8×10^4) were pulsed for 1 hour with a peptide having an amino acid sequence (Cys Thr Ala Cys Arg Trp Lys Ala Cys Gln Arg, SEQ ID NO: 46) corresponding to the amino acid sequence at position […] of SEQ ID NO: 2, co-cultured with TcOS2000cl-303 cells (4×10^4) and the reactivity was assessed by LDH release assay in the same manner as that described in Example 2. […]

CTACRWKACQR (cysteine pairing not given here) [SEQ ID NO: 46]
reactivity of TcOS2000cl-303 (LDH release): reacted to peptide-pulsed 293-EBNA-B55 cells
